Patent US20100297765A1 (priority 2006, published 2010)

Assays:
[1] = system: pro-inflammatory cytokines (IL-1, IL-6, IL-8, TNF-alpha, INF-gamma); assay: CBA flux cytometry dosage of cytokine secretion in culture supernatants of UV-irradiated reconstructed skin; type: cell-based, human; conditions: for efficiency on cell viability and synthesis of pro-inflammatory interleukins after solar UV stress: both parameters (cell mortality, pro-inflammatory molecules), UV-irradiated reconstructed skin; for TNFβ / IL1β / IL8 / IL6: reconstructed skin UV irradiated + formulation with 3% active, 10 days; for TNFβ: control 53, UV irradiated 152; for IL1β: control 76, UV irradiated 179; for IL8: control 275, UV irradiated 395; for IL6: control 379, UV irradiated 649
Excerpt: The model was made according to the following protocol: • The reconstructed dermis model containing DCCs, macrophages and endothelial cells was made according to Example 12. • The reconstructed skin model containing LCs was made according to Example 14.

[2] = system: keratinocytes and LCs or fibroblasts and DDC in co-culture; assay: Cytokine secretion in monolayer pluricellular co-culture models under the effect of an active ingredient; type: cell-based, human; conditions: retinol 0.05% final concentration in culture medium for 3 days
Excerpt: (§1) 1 to 2.10^6 human keratinocytes and 1 to 2.10^6 human monocytes (obtained according to Example 1 or 2) are jointly grown in a nutritious medium, for example of the K-SFM type, in culture dishes, for example of the 6-well plate type. The joint culture is maintained for 6 days in a nutritious medium, for example of the K-SFM type, without adding any exogenous cytokine.
as §1, with “fibroblasts” for “keratinocytes”, “FBM” for “K-SFM”, “dishes” for “dishes,”
In order to assess the irritating, sensitizing, allergizing potency, and to estimate a possible pro- or anti-inflammatory activity of an active ingredient intended for human skin, we quantify in the culture supernatants, secretion of cytokines, for example, IL-1, IL-6, IL-8, IL-10, TNF-[…] INF[…], according to the following protocol: • The model is made according to the protocol described in Example 3 or 4. • Retinol is then added into the culture medium at a final concentration of 0.05% for 3 days. • The culture supernatants are then recovered and analyzed.

Row | Compound | efficiency on cell viability and synthesis of pro-inflammatory interleukins after solar UV stress [1] | TNFβ [1] [pg/mL] | IL1β [1] [pg/mL] | IL8 [1] [pg/mL] | IL6 [1] [pg/mL] | secretion of pro-inflammatory cytokines [2]
1 | Quercitine Caprylate [Flavenger] | demonstrated efficiency with a possible tendency to restore the reference level | 89 | 97 | 294 | 426 | –
2 | CC1=C(/C=C/C(C)=C/C=C/C(C)=C/CO)C(C)(C)CCC1 [retinol, Retinol] | – | – | – | – | – | stimulation of secretion of pro-inflammatory cytokines
3 | Hesperitine Laurate [Flavagrum] | demonstrated efficiency with a possible tendency to restore the reference level | 105 | 125 | 312 | 452 | –
